Data: US9957274B2, “Indane inhibitors of EED and methods of their use” (AbbVie Inc., priority 2016, dated 2018)
Where two headings read alike, the source gives them in different places.

Key:
EED = EED (Homo sapiens, UniProt O75530); assay: EED TR-FRET Binding Assay (modified LanthaScreen competition assay)
How it was run: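 Competition binding in a modified LanthaScreen format, in 20 mM Tris-HCl pH 7.5, 200 mM NaCl, 0.01% Tween-20, 10 uM DTT and 0.05% BSA. Reactions ran 1 hour at 25° C before TR-FRET detection.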

[1] = system: H3K27me3 in OCILY19 cells; assay: H3K27me3 AlphaLISA assay in OCILY19 cells; type: cell-based; details: Homo sapiens, OCI-LY19, 144 h, 6 days with compound, read-out: OCILY-19 IC50
Method: 5,000 cells were plated into each well of 96-well Corning CellBing cell culture plates and incubated overnight at 37° C. in a humidified CO2 incubator. […] The cell culture plates were then incubated for 6 more days. H3K27me3 AlphaLISA assay was performed on the cell culture samples by using AlphaLISAR® H3K27me3 Cellular Detection Kit (PerkinElmer) and 96-well white half-area plates (PerkinElmer).

Pfeiffer cells = assay: CTG cell viability assay (CellTiter-Glo); type: cell-based; details: Homo sapiens, 240 h
Method: 1,000 cells were plated into each well of 96-well Corning CellBing cell culture plates and incubated overnight at 37° C. in a humidified CO2 incubator. […] The cell culture plates were then incubated for 10 more days. CTG cell viability assay was performed on the cell culture samples by using CellTiter-Glo® Luminescent Cell Viability Assay Kit (Promega).

[2] = Pfeiffer cells, 10 days with compound, CellTiter-Glo, read-out: Cell Proliferation IC50
[3] = Pfeiffer, read-out: Cell Proliferation IC50 (uM)

Sequence of EED (O75530 whole entry): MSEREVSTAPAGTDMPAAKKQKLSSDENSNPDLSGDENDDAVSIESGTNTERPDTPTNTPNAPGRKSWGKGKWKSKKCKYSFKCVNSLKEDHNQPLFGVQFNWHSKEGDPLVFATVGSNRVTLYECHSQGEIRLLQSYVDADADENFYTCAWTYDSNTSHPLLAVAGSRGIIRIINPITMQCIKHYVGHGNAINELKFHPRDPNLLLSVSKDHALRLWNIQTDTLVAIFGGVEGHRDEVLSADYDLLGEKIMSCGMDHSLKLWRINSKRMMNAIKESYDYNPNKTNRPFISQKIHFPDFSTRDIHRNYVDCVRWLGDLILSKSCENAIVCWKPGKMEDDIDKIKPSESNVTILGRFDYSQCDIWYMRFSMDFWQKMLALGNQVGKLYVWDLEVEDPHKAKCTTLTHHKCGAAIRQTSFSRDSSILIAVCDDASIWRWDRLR

CN(C)[C@H]1CN([C@@H]2C[C@H](F)c3cccc(F)c32)C[C@@H]1c1ccc(S(C)(=O)=O)cc1 (mixture of isomers) [Example 31, rac-(3R,4S)-1-[(1R,3S)-3,7-difluoro-2,3-dihydro-1H-inden-1-yl]-4-[4-(methanesulfonyl)phenyl]-N,N-dimethylpyrrolidin-3-amine]
IC50 (EED): 8.19 nM
IC50 [1]: 3450 nM
IC50 (Pfeiffer cells; [2]): 0.754 µM

CN(C)[C@H]1CN([C@H]2C[C@H](F)c3cccc(F)c32)C[C@@H]1c1ccc(S(C)(=O)=O)cc1 (mixture of isomers) [Example 32, rac-(3R,4S)-1-[(1S,3S)-3,7-difluoro-2,3-dihydro-1H-inden-1-yl]-4-[4-(methanesulfonyl)phenyl]-N,N-dimethylpyrrolidin-3-amine]
IC50 (EED): 4.54 nM
IC50 [1]: 2110 nM
IC50 (Pfeiffer cells; [2]): 2.81 µM

CN(C)[C@H]1CN(C2CCc3cccc(F)c32)C[C@@H]1c1ccc(C(=O)N2CC[C@H](O)C2)cc1 (mixture of isomers) [Example 40, rac-{4-[(3S,4R)-4-(dimethylamino)-1-(7-fluoro-2,3-dihydro-1H-inden-1-yl)pyrrolidin-3-yl]phenyl}[(3S)-3-hydroxypyrrolidin-1-yl]methanone]
IC50 (EED): 4.62 nM
IC50 [1]: 1080 nM
IC50 (Pfeiffer cells; [2]): 0.941 µM

CN(C)[C@H]1CN(C2CCc3cccc(F)c32)C[C@@H]1c1ccc(S(N)(=O)=O)cc1 (mixture of isomers) [Example 8, rac-4-[(3S,4R)-4-(dimethylamino)-1-(7-fluoro-2,3-dihydro-1H-inden-1-yl)pyrrolidin-3-yl]benzene-1-sulfonamide]
IC50 (EED): 10.7 nM
IC50 [1]: 637 nM
IC50 (Pfeiffer cells; [2]): 1.32 µM

CNC(=O)c1ccc([C@H]2CN(C3CCc4cccc(F)c43)C[C@@H]2N(C)C)cc1 (mixture of isomers) [Example 24, rac-4-[(3S,4R)-4-(dimethylamino)-1-(7-fluoro-2,3-dihydro-1H-inden-1-yl)pyrrolidin-3-yl]-N-methylbenzamide]
IC50 (EED): 20.5 nM
IC50 [1]: 601 nM
IC50 (Pfeiffer cells; [2]): 2.92 µM

CN(C)C(=O)c1ccc([C@H]2CN(C3CCc4cccc(Cl)c43)C[C@@H]2N(C)C)cc1 (mixture of isomers) [Example 25, rac-4-[(3S,4R)-1-(7-chloro-2,3-dihydro-1H-inden-1-yl)-4-(dimethylamino)pyrrolidin-3-yl]-N,N-dimethylbenzamide]
IC50 (EED): 18.2 nM
IC50 [1]: 1060 nM
IC50 (Pfeiffer cells; [2]): 2.93 µM

CN(C)C(=O)c1ccc([C@H]2CN(C3CCc4cccc(F)c43)C[C@@H]2N(C)C)cc1 (mixture of isomers) [Example 26, rac-4-[(3S,4R)-4-(dimethylamino)-1-(7-fluoro-2,3-dihydro-1H-inden-1-yl)pyrrolidin-3-yl]-N,N-dimethylbenzamide]
IC50 (EED): 2.51 nM
IC50 [1]: 1360 nM
IC50 (Pfeiffer cells; [2]): 3.03 µM

Cc1cc([C@H]2CN(C3CCc4cccc(F)c43)C[C@@H]2N(C)C)ccc1C#N (mixture of isomers) [Example 37, rac-4-[(3S,4R)-4-(dimethylamino)-1-(7-fluoro-2,3-dihydro-1H-inden-1-yl)pyrrolidin-3-yl]-2-methylbenzonitrile]
IC50 (EED): 2.67 nM
IC50 [1]: 874 nM
IC50 (Pfeiffer cells; [2]): 2.66 µM

CC(=O)N1CCN(c2ccc([C@H]3CN(C4CCc5cccc(F)c54)C[C@@H]3N(C)C)cc2)CC1 (mixture of isomers) [Example 44, rac-1-(4-{4-[(3S,4R)-4-(dimethylamino)-1-(7-fluoro-2,3-dihydro-1H-inden-1-yl)pyrrolidin-3-yl]phenyl}piperazin-1-yl)ethan-1-one]
IC50 (EED): 0.652 nM
IC50 [1]: 144 nM
IC50 (Pfeiffer cells; [3]): 0.0836 µM

CN(C)[C@@H]1CN(C2CCc3cccc(F)c32)C[C@H]1c1ccc(N2CCN(C(=O)CO)CC2)cc1 (mixture of isomers) [Example 52, rac-1-(4-{4-[(3R,4S)-4-(dimethylamino)-1-(7-fluoro-2,3-dihydro-1H-inden-1-yl)pyrrolidin-3-yl]phenyl}piperazin-1-yl)-2-hydroxyethan-1-one]
IC50 (EED): 1 nM
IC50 [1]: 75 nM
IC50 (Pfeiffer cells; [2]): 0.0894 µM

CN(C)[C@@H]1CN(C2CCc3cccc(F)c32)C[C@H]1c1ccc(N2CCN(C(=O)C(N)=O)CC2)cc1 (mixture of isomers) [Example 54, rac-2-(4-{4-[(3R,4S)-4-(dimethylamino)-1-(7-fluoro-2,3-dihydro-1H-inden-1-yl)pyrrolidin-3-yl]phenyl}piperazin-1-yl)-2-oxoacetamide]
IC50 (EED): 1.06 nM
IC50 [1]: 99.1 nM
IC50 (Pfeiffer cells; [2]): 0.114 µM

CN(C)C(=O)c1cccc2c([C@H]3CN(C4CCc5cccc(F)c54)C[C@@H]3N(C)C)cn(C)c12 (mixture of isomers) [Example 101, rac-3-[(3S,4R)-4-(dimethylamino)-1-(7-fluoro-2,3-dihydro-1H-inden-1-yl)pyrrolidin-3-yl]-N,N,1-trimethyl-1H-indole-7-carboxamide]
IC50 (EED): 1.74 nM
IC50 [1]: 368 nM

CN(C)C(=O)N1CCN(C(=O)c2cccc3c([C@H]4CN(C5CCc6cccc(F)c65)C[C@@H]4N(C)C)cn(C)c23)CC1 (mixture of isomers) [Example 127, rac-4-{3-[(3S,4R)-4-(dimethylamino)-1-(7-fluoro-2,3-dihydro-1H-inden-1-yl)pyrrolidin-3-yl]-1-methyl-1H-indole-7-carbonyl}-N,N-dimethylpiperazine-1-carboxamide]
IC50 (EED): 1.75 nM
IC50 (Pfeiffer cells; [2]): 0.335 µM

CN(C)[C@H]1CN(C2CCc3cccc(F)c32)C[C@@H]1c1cn(C)c2c(C(=O)N3CCN4CCNC(=O)C4C3)cccc12 (mixture of isomers) [Example 134, rac-8-{3-[(3S,4R)-4-(dimethylamino)-1-(7-fluoro-2,3-dihydro-1H-inden-1-yl)pyrrolidin-3-yl]-1-methyl-1H-indole-7-carbonyl}hexahydro-2H-pyrazino[1,2-a]pyrazin-1(6H)-one]
IC50 (EED): 2.5 nM
IC50 (Pfeiffer cells; [2]): 0.833 µM

CN(C)[C@H]1CN(C2CCc3cccc(F)c32)C[C@@H]1c1cn(C)c2c(C(=O)N3CCN(c4cccnn4)CC3)cccc12 (mixture of isomers) [Example 137, rac-{3-[(3S,4R)-4-(dimethylamino)-1-(7-fluoro-2,3-dihydro-1H-inden-1-yl)pyrrolidin-3-yl]-1-methyl-1H-indol-7-yl}[4-(pyridazin-3-yl)piperazin-1-yl]methanone]
IC50 (EED): 1.91 nM
IC50 (Pfeiffer cells; [2]): 0.299 µM

CN(C)[C@H]1CN(C2CCc3cccc(F)c32)C[C@@H]1C1CCN(c2ccccc2)CC1 (mixture of isomers) [Example 146, rac-(3R,4S)-1-(7-fluoro-2,3-dihydro-1H-inden-1-yl)-N,N-dimethyl-4-(1-phenylpiperidin-4-yl)pyrrolidin-3-amine]
IC50 (EED): 4.58 nM
IC50 (Pfeiffer cells; [2]): 2.9 µM

CN(C)C(=O)CN1CCN(c2ccc([C@@H]3CN(C4CCc5cccc(F)c54)C[C@H]3N(C)C)cn2)CC1 (mixture of isomers) [Example 147, rac-2-(4-{5-[(3R,4S)-4-(dimethylamino)-1-(7-fluoro-2,3-dihydro-1H-inden-1-yl)pyrrolidin-3-yl]pyridin-2-yl}piperazin-1-yl)-N,N-dimethylacetamide]
IC50 (EED): 3.84 nM
IC50 (Pfeiffer cells; [2]): 0.535 µM

CN(C)[C@@H]1CN(C2CCc3cccc(F)c32)C[C@H]1c1ccc(-c2cnn(CC(=O)N3CC(O)C3)c2)nc1 (mixture of isomers) [Example 150, rac-2-(4-{5-[(3R,4S)-4-(dimethylamino)-1-(7-fluoro-2,3-dihydro-1H-inden-1-yl)pyrrolidin-3-yl]pyridin-2-yl}-1H-pyrazol-1-yl)-1-(3-hydroxyazetidin-1-yl)ethan-1-one]
IC50 (EED): 2.4 nM
IC50 (Pfeiffer cells; [2]): 0.95 µM

CN(C)[C@@H]1CN(C2CCc3cccc(F)c32)C[C@H]1c1ccc(N2CCN(C(=O)C3COC3)CC2)nc1 (mixture of isomers) [Example 151, rac-(4-{5-[(3R,4S)-4-(dimethylamino)-1-(7-fluoro-2,3-dihydro-1H-inden-1-yl)pyrrolidin-3-yl]pyridin-2-yl}piperazin-1-yl)(oxetan-3-yl)methanone]
IC50 (EED): 2.24 nM
IC50 (Pfeiffer cells; [2]): 0.559 µM

CN(C)[C@@H]1CN(C2CCc3cccc(F)c32)C[C@H]1c1ccc(-c2cnn(CC(=O)N3CC(F)C3)c2)nc1 (mixture of isomers) [Example 153, rac-2-(4-{5-[(3R,4S)-4-(dimethylamino)-1-(7-fluoro-2,3-dihydro-1H-inden-1-yl)pyrrolidin-3-yl]pyridin-2-yl}-1H-pyrazol-1-yl)-1-(3-fluoroazetidin-1-yl)ethan-1-one]
IC50 (EED): 2.01 nM
IC50 (Pfeiffer cells; [2]): 0.419 µM

CC(=O)N1CCN(c2ccc([C@H]3CN([C@@H]4CCc5cccc(F)c54)C[C@@H]3N(C)C)cc2)CC1 [Example 46, 1-[4-(4-{(3S,4R)-4-(dimethylamino)-1-[(1R)-7-fluoro-2,3-dihydro-1H-inden-1-yl]pyrrolidin-3-yl}phenyl)piperazin-1-yl]ethan-1-one]
IC50 (EED): 3.36 nM
IC50 (Pfeiffer cells; [3]): 1.01 µM

CN(C)[C@H]1CN(C2CCc3cccc(F)c32)C[C@@H]1c1cn(C)c2ccccc12 (stereo partly drawn) [Example 76, (3R,4S)-1-(7-fluoro-2,3-dihydro-1H-inden-1-yl)-N,N-dimethyl-4-(1-methyl-1H-indol-3-yl)pyrrolidin-3-amine]
IC50 [1]: 1340 nM
IC50 (Pfeiffer cells; [2]): 1.9 µM

CN(C)[C@H]1CN(C2CCc3cccc(F)c32)C[C@@H]1c1cn(C)c2c(C(=O)O)cccc12 (stereo partly drawn) [Example 79, 3-[(3S,4R)-4-(dimethylamino)-1-(7-fluoro-2,3-dihydro-1H-inden-1-yl)pyrrolidin-3-yl]-1-methyl-1H-indole-7-carboxylic acid]
IC50 (EED): 2.45 nM
IC50 (Pfeiffer cells; [2]): 1.02 µM
